According to patent publication EP0768881B1, “ANTI-HIV TRIPLE COMBINATION COMPRISING ZIDOVUDINE, LAMIVUDINE AND LOVIRIDE” (JANSSEN PHARMACEUTICA N.V., priority 1994, dated 1996):

Key:
CD4 cells = conditions: patients receiving established anti-HIV drugs alone; count then decreases again; cited from earlier work
[1] = Pharmacokinetic interaction between components in open case-control study; assay type: in vivo, HIV-1 infected patients; conditions: between lamivudine and zidovudine or loviride
Description: The triple combination of zidovudine (200 mg t.i.d.), lamivudine (300 mg b.i.d.) and loviride (100 mg t.i.d.) versus the double combination of zidovudine (200 mg t.i.d.) and loviride (100 mg t.i.d.) was assessed in an open case-control study. Twenty HIV-1 infected patients with a positive p24 antigen test at baseline were included. Both combinations were well tolerated. Serious drug-induced safety-related abnormalities were not observed. […] The median CD4 count (% versus baseline) during therapy in the group of patients treated with the triple combination were compared with the median CD4 count in the group of patients treated with the double combination in Table 1. The median p24 antigen count (% versus baseline) of the group of patients treated with the triple combination were compared with the median p24 antigen count of the group of patients treated with double combination in Table 2.

Row | SMILES | CD4 count increase (CD4 cells) | pharmacokinetic interaction [1]
1 | Cc1cn([C@H]2C[C@H](N=[N+]=[N-])[C@@H](CO)O2)c(=O)[nH]c1=O [zidovudine, 3'-azido-3'-deoxythymidine] | about 20% | –
2 | Nc1ccn([C@H]2CS[C@@H](CO)O2)c(=O)n1 [lamivudine, (-)-2',3'-dideoxy-3'-thiacytidine] | about 20% | No clinically relevant pharmacokinetic interaction
